From patent US12344597B2, “Alkoxy-substituted pyridinyl derivatives as LPA1 receptor antagonists and their use in the treatment of fibrosis” (IDORSIA PHARMACEUTICALS LTD, priority 2018, dated 2025) come the findings set out here.

Molecules are shown by their SMILES. pIC50: −log10 of the molar value.

Sequence of human LPA1 receptor (Q92633 whole entry, the tested form may be a part): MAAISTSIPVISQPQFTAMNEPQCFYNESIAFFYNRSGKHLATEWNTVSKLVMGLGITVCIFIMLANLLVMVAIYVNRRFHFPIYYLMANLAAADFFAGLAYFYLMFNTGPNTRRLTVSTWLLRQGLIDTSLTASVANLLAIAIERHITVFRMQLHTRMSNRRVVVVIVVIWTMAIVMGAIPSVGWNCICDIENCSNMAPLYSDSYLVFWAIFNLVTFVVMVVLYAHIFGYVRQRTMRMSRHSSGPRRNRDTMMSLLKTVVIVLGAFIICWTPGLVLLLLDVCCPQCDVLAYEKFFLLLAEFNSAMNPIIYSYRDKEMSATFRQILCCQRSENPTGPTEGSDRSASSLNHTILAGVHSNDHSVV

The assay deals with human LPA1 receptor (Homo sapiens (Human), UniProt Q92633). Nature of the assay: Beta-arrestin recruitment assay to determine IC50 values for human LPAR1. The note with it: antagonist mode, Tango EDG2-bla U2OS cells, LPA 18:1 500 nM final. In kind it is cell-based. The essentials:
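Antagonist IC50 = concentration giving 50% inhibition of maximal LPA response. Read-out is beta-lactamase reporter activity after arrestin-protease recruitment in U2OS cells bearing LPA1-TEV-Gal4-VP16 construct; cells pre-incubated 20 h, 37 °C, 5% CO2.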
Molecule `Cc1ccc(NC(=O)C2(c3ccccc3C(C)C)CN(C(=O)CCOCCOCCO)C2)c(OC(F)F)n1` [Ex 12-51, N-(2-(difluoromethoxy)-6-methylpyridin-3-yl)-1-(3-(2-(2-hydroxyethoxy)ethoxy)propanoyl)-3-(2-isopropylphenyl)azetidine-3-carboxamide] gave a pIC50 of 6.44.

On to `Cc1ccc(NC(=O)C2(c3ccccc3C(C)C)CN(C(=O)CN3CC(O)C3)C2)c(OC(F)F)n1` [Ex 12-53, N-(2-(difluoromethoxy)-6-methylpyridin-3-yl)-1-(2-(3-hydroxyazetidin-1-yl)acetyl)-3-(2-isopropylphenyl)azetidine-3-carboxamide], for which the negative-log IC50 (pIC50) is 7.77.

Take `COCCNCC(=O)N1CC(C(=O)Nc2ccc(C)nc2OC(F)F)(c2ccccc2C(C)C)C1` [Ex 12-54, N-(2-(difluoromethoxy)-6-methylpyridin-3-yl)-3-(2-isopropylphenyl)-1-((2-methoxyethyl)glycyl)azetidine-3-carboxamide]: the pIC50 was 8.00.

As for `Cc1ccc(NC(=O)C2(c3ccccc3C(C)C)CN(C(=O)CNC[C@@H](C)O)C2)c(OC(F)F)n1` [Ex 12-55, (R)-N-(2-(difluoromethoxy)-6-methylpyridin-3-yl)-1-((R)-(2-hydroxypropyl)glycyl)-3-(2-isopropylphenyl)azetidine-3-carboxamide], the pIC50 is 8.52.

Turning to `Cc1ccc(NC(=O)C2(c3ccccc3C(C)C)CN(C(=O)CNC[C@H](C)O)C2)c(OC(F)F)n1` [Ex 12-56, (S)-N-(2-(difluoromethoxy)-6-methylpyridin-3-yl)-1-((S)-(2-hydroxypropyl)glycyl)-3-(2-isopropylphenyl)azetidine-3-carboxamide], the pIC50 was 8.15.

For the molecule `Cc1ccc(NC(=O)C2(c3ccccc3C(C)C)CN(C(=O)CNCC3(O)CC3)C2)c(OC(F)F)n1` [Ex 12-57, N-(2-(difluoromethoxy)-6-methylpyridin-3-yl)-1-(((1-hydroxycyclopropyl)methyl)glycyl)-3-(2-isopropylphenyl)azetidine-3-carboxamide], the pIC50 was 7.77. Against the preceding molecule, the pIC50 is 0.38 log units lower.

As to `Cc1ccc(NC(=O)C2(c3ccccc3C(C)C)CN(C(=O)CN[C@H](C)CO)C2)c(OC(F)F)n1` [Ex 12-58, (R)-N-(2-(difluoromethoxy)-6-methylpyridin-3-yl)-1-((R)-(1-hydroxypropan-2-yl)glycyl)-3-(2-isopropylphenyl)azetidine-3-carboxamide], the pIC50 is 8.00. This pIC50 is 0.23 log units higher than that of the molecule before.

Molecule `Cc1ccc(NC(=O)C2(c3ccccc3C(C)C)CN(C(=O)CN[C@@H](C)CO)C2)c(OC(F)F)n1` [Ex 12-59, (S)-N-(2-(difluoromethoxy)-6-methylpyridin-3-yl)-1-((R)-(1-hydroxypropan-2-yl)glycyl)-3-(2-isopropylphenyl)azetidine-3-carboxamide] showed a negative-log IC50 (pIC50) of 8.00.

In the case of `Cc1ccc(NC(=O)C2(c3ccccc3C(C)C)CN(C(=O)CCNCCO)C2)c(OC(F)F)n1` [Ex 12-60, N-(2-(difluoromethoxy)-6-methylpyridin-3-yl)-1-(3-((2-hydroxyethyl)amino)propanoyl)-3-(2-isopropylphenyl)azetidine-3-carboxamide], the pIC50 is 7.24.

The molecule `COC(=O)CCC(=O)N1CC(C(=O)Nc2ccc(C)nc2OC)(c2ccccc2C(C)C)C1` [Ex 12-61, Methyl 4-(3-(2-isopropylphenyl)-3-((2-methoxy-6-methylpyridin-3-yl)carbamoyl)azetidin-1-yl)-4-oxobutanoate] had a pIC50 of 6.56. This pIC50 lies 0.68 log units lower than the previous one.

In turn, `COc1nc(C)ccc1NC(=O)C1(c2ccccc2C(C)C)CN(C(=O)CCC(=O)O)C1` [Ex 12-62, 4-(3-(2-isopropylphenyl)-3-((2-methoxy-6-methylpyridin-3-yl)carbamoyl)azetidin-1-yl)-4-oxobutanoic acid] showed a pIC50 of 7.19.

`Cc1ccc(NC(=O)C2(c3ccccc3C(C)C)CN(C(=O)C3(C(=O)O)CC3)C2)c(OC(F)F)n1` [Ex 12-64, 1-(3-((2-(difluoromethoxy)-6-methylpyridin-3-yl)carbamoyl)-3-(2-isopropylphenyl)azetidine-1-carbonyl)cyclopropane-1-carboxylic acid] gave a pIC50 of 7.72.

With `CCOC(=O)CC(=O)N1CCC(C(=O)Nc2ccc(C)nc2OC(F)F)(c2ccccc2C(C)C)CC1` [Ex 12-65, ethyl-3-(4-((2-(difluoromethoxy)-6-methylpyridin-3-yl)carbamoyl)-4-(2-isopropylphenyl)piperidin-1-yl)-3-oxopropanoate], the negative-log IC50 (pIC50) was 8.52. This pIC50 lies 0.80 log units higher than the previous one.

`Cc1ccc(NC(=O)C2(c3ccccc3C(C)C)CCN(C(=O)CC(=O)O)CC2)c(OC(F)F)n1` [Ex 12-66, 3-(4-((2-(difluoromethoxy)-6-methylpyridin-3-yl)carbamoyl)-4-(2-isopropylphenyl)piperidin-1-yl)-3-oxopropanoic acid] had a pIC50 of 7.92.

Turning to `COC(=O)CCC(=O)N1CC(C(=O)Nc2ccc(C)nc2OC(C)C)(c2ccccc2C(C)C)C1` [Ex 12-67, methyl 4-(3-((2-isopropoxy-6-methylpyridin-3-yl)carbamoyl)-3-(2-isopropylphenyl)azetidin-1-yl)-4-oxobutanoate], the pIC50 is 7.12.

For `Cc1ccc(NC(=O)C2(c3ccccc3C(C)C)CN(C(=O)CCC(=O)O)C2)c(OC(C)C)n1` [Ex 12-68, 4-(3-((2-isopropoxy-6-methylpyridin-3-yl)carbamoyl)-3-(2-isopropylphenyl)azetidin-1-yl)-4-oxobutanoic acid], the pIC50 was 7.48. Compared with the last molecule, the pIC50 is 0.36 log units higher.

Molecule `COC(=O)CCC(=O)N1CC(C(=O)Nc2ccc(Cl)nc2OC)(c2ccccc2C(C)C)C1` [Ex 12-69, methyl 4-(3-((6-chloro-2-methoxypyridin-3-yl)carbamoyl)-3-(2-isopropylphenyl)azetidin-1-yl)-4-oxobutanoate] showed a pIC50 of 6.64.

Consider `COc1nc(Cl)ccc1NC(=O)C1(c2ccccc2C(C)C)CN(C(=O)CCC(=O)O)C1` [Ex 12-70, 4-(3-((6-chloro-2-methoxypyridin-3-yl)carbamoyl)-3-(2-isopropylphenyl)azetidin-1-yl)-4-oxobutanoic acid], for which the pIC50 was 7.22. This pIC50 lies 0.58 log units higher than the previous one.

`Cc1ccc(NC(=O)C2(c3ccccc3C(C)C)CN(C(=O)CCC(=O)O)C2)c(OC(F)F)n1` [Ex 12-71, 4-(3-((2-(difluoromethoxy)-6-methylpyridin-3-yl)carbamoyl)-3-(2-isopropylphenyl)azetidin-1-yl)-4-oxobutanoic acid] showed a pIC50 of 8.00.

Consider `COC(=O)CCC(=O)N1CCC(C(=O)Nc2ccc(C)nc2OC(F)F)(c2ccccc2C(C)C)CC1` [Ex 12-72, methyl 4-(4-((2-(difluoromethoxy)-6-methylpyridin-3-yl)carbamoyl)-4-(2-isopropylphenyl)piperidin-1-yl)-4-oxobutanoate], for which the pIC50 is 8.40.

In the case of `CCOC(=O)/C=C/C(=O)N1CC(C(=O)Nc2ccc(C)nc2OC(F)F)(c2ccccc2C(C)C)C1` [Ex 12-74, ethyl (E)-4-(3-((2-(difluoromethoxy)-6-methylpyridin-3-yl)carbamoyl)-3-(2-isopropylphenyl)azetidin-1-yl)-4-oxobut-2-enoate], the pIC50 was 7.01.

`Cc1ccc(NC(=O)C2(c3ccccc3C(C)C)CN(C(=O)/C=C/C(=O)O)C2)c(OC(F)F)n1` [Ex 12-75, (E)-4-(3-((2-(difluoromethoxy)-6-methylpyridin-3-yl)carbamoyl)-3-(2-isopropylphenyl)azetidin-1-yl)-4-oxobut-2-enoic acid] showed a pIC50 of 7.30.

Molecule `CCOC(=O)/C=C\C(=O)N1CC(C(=O)Nc2ccc(C)nc2OC(F)F)(c2ccccc2C(C)C)C1` [Ex 12-76, ethyl (Z)-4-(3-((2-(difluoromethoxy)-6-methylpyridin-3-yl)carbamoyl)-3-(2-isopropylphenyl)azetidin-1-yl)-4-oxobut-2-enoate] gave a pIC50 of 8.15.

The molecule `Cc1ccc(NC(=O)C2(c3ccccc3C(C)C)CN(C(=O)/C=C\C(=O)O)C2)c(OC(F)F)n1` [Ex 12-77, (Z)-4-(3-((2-(difluoromethoxy)-6-methylpyridin-3-yl)carbamoyl)-3-(2-isopropylphenyl)azetidin-1-yl)-4-oxobut-2-enoic acid] had a pIC50 of 7.51.

For `Cc1ccc(NC(=O)C2(c3ccccc3C(C)C)CN(C(=O)CC(C)C(=O)O)C2)c(OC(F)F)n1` (stereo not drawn) [Ex 12-78, 4-(3-((2-(difluoromethoxy)-6-methylpyridin-3-yl)carbamoyl)-3-(2-isopropylphenyl)azetidin-1-yl)-2-methyl-4-oxobutanoic acid], the pIC50 is 7.57. This pIC50 and that of the molecule before are within 0.2 log units of each other.

Molecule `Cc1ccc(NC(=O)C2(c3ccccc3C(C)C)CN(C(=O)C[C@H](C)C(=O)O)C2)c(OC(F)F)n1` [Ex 12-79, (S)-4-(3-((2-(difluoromethoxy)-6-methylpyridin-3-yl)carbamoyl)-3-(2-isopropylphenyl)azetidin-1-yl)-2-methyl-4-oxobutanoic acid] showed a pIC50 of 7.82.

Consider `Cc1ccc(NC(=O)C2(c3ccccc3C(C)C)CN(C(=O)C[C@@H](C)C(=O)O)C2)c(OC(F)F)n1` [Ex 12-80, (R)-4-(3-((2-(difluoromethoxy)-6-methylpyridin-3-yl)carbamoyl)-3-(2-isopropylphenyl)azetidin-1-yl)-2-methyl-4-oxobutanoic acid], for which the pIC50 was 7.74.

Consider `COC(=O)C(C)(C)CC(=O)N1CC(C(=O)Nc2ccc(C)nc2OC(F)F)(c2ccccc2C(C)C)C1` [Ex 12-81, methyl 4-(3-((2-(difluoromethoxy)-6-methylpyridin-3-yl)carbamoyl)-3-(2-isopropylphenyl)azetidin-1-yl)-2,2-dimethyl-4-oxobutanoate], for which the pIC50 is 7.47.

In turn, `Cc1ccc(NC(=O)C2(c3ccccc3C(C)C)CCN(C(=O)CC(C)(C)C(=O)O)C2)c(OC(F)F)n1` (stereo not drawn) [Ex 12-83, 4-(3-((2-(difluoromethoxy)-6-methylpyridin-3-yl)carbamoyl)-3-(2-isopropylphenyl)pyrrolidin-1-yl)-2,2-dimethyl-4-oxobutanoic acid] showed a pIC50 of 7.62.

`CC(C)c1ccccc1C1(C(=O)Nc2cccnc2OC(F)F)CN(C(=O)CC(C)(C)C(=O)O)C1` [Ex 12-84, 4-(3-((2-(difluoromethoxy)pyridin-3-yl)carbamoyl)-3-(2-isopropylphenyl)azetidin-1-yl)-2,2-dimethyl-4-oxobutanoic acid] showed a pIC50 of 7.29.
